Patent publication US20100152252A1, “Heterocyclyl-substituted-ethylamino-phenyl derivatives, their preparation and use as medicaments” (LABORATORIOS DEL DR. ESTEVE,S.A., priority 2006, published 2010)
Like-named read-outs stand apart in the source and are kept apart here.

Columns and labels:
[1] = target: T1, Cloned Human Serotonin Receptor, Subtype 7 (h5HT7) (Homo sapiens, UniProt P34969); assay: Radioligand binding, [125I]LSD, h5HT7 expressed in CHO cells
T1 construct: purchased PerkinElmer 6120512; host or cells: CHO cells
Protocol: Radioligand binding assays were performed using the Cloned Human Serotonin Receptor, Subtype 7 (h5HT7), expressed in CHO cells, coated on Flashplate (Basic FlashPlate Cat.: SMP200) from PerkinElmer (Cat.: 6120512). The protocol assay was essentially the recommended protocol in the Technical Data Sheet by PerkinEmer Life and Analytical Sciences. The Mass membrane protein/well was typically […] and the Receptor/well was about 9-10 fmoles. The Flashplate were let equilibrate at room temperature for one hour before the addition of the components of the assay mixture. The binding buffer was: 50 mM Tris-HCl, pH 7.4, containing 10 mM MgCl2, 0.5 mM EDTA and 0.5% BSA. The radioligand was [^125I]LSD at a final concentration of 0.82 nM. Nonspecific binding was determined with 50 μM of Clozapine. The assay volume was 25 μl. TopSeal-A were applied onto Flashplate microplates and they were incubated at room temperature for 240 minutes in darkness. The radioactivity were quantified by liquid scintillation spectrophotometry (Wallac 1450 Microbeta Trilux) with a count delay of 4 minutes prior to counting and a counting time of 30 seconds per well. Competition binding data were analyzed by using the LIGAND program (Munson and Rodbard, LIGAND: A versatile, computerized approach for characterization of ligand-binding systems. Anal. Biochem. 107: 220-239, 1980) and assays were performed in triplicate determinations for each point.

5HT7 receptor = 5HT7 receptor (Homo sapiens, UniProt P34969); assay: Functionality assay on the 5HT7 receptor; assay type: biochemical
Source text: Functionality assay on the 5HT7 receptor were done according to those known in the state of the art.

5-HT1 = 5-HT1 IC50; assay type: binding
[2] = [125I]LSD 0.82 nM, h5HT7 in CHO cells, read-out: 5-HT7 IC50

T1 sequence (P34969 whole entry): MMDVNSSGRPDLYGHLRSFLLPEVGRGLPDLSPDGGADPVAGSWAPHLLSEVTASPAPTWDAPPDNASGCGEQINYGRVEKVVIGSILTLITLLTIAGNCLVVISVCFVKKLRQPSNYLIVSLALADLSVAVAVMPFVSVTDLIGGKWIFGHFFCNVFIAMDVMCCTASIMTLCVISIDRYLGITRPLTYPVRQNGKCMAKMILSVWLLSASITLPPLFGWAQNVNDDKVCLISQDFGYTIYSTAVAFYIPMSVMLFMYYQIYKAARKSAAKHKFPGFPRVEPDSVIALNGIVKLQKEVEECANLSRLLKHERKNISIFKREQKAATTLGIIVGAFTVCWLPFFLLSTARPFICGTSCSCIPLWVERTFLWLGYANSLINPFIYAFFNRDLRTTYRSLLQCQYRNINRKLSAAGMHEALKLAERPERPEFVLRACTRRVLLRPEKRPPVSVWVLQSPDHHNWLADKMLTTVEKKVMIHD
Chain of 5HT7 receptor (P34969 whole entry): as above

| SMILES | IC50 [1] [nM] | IC50 [1, 2] [nM] | also measured |
| --- | --- | --- | --- |
| Cc1nn(C)c(C)c1-c1cccc(CCN(C)C)c1 [Example 1, Dimethyl-{2-[3-(1,3,5-trimethyl-1H-pyrazol-4-yl)-phenyl]-ethyl}-amine] | 6.1 ± 0.7 | – | EC50 (5HT7 receptor): 25.5 ± 2 nM; Emax (5HT7 receptor): 94%; IC50 (5-HT1): > 1000 nM |
| CCN(CC)CCc1cccc(-c2c(C)nn(C)c2C)c1 [Example 3, Diethyl-{2-[3-(1,3,5-trimethyl-1H-pyrazol-4-yl)-phenyl]-ethyl}-amine] | 76.2 | – | – |
| CCCN(CCC)CCc1cccc(-c2c(C)nn(C)c2C)c1 [Example 4, Dipropyl-{2-[3-(1,3,5-trimethyl-1H-pyrazol-4-yl)-phenyl]-ethyl}-amine] | 56.9 ± 17.9 | – | – |
| Cc1n[nH]c(C)c1-c1cccc(CCN(C)C)c1 [Example 5, {2-[3-(3,5-Dimethyl-1H-pyrazol-4-yl)-phenyl]-ethyl}-dimethyl-amine] | – | 129 ± 16.8 | – |
| Cc1cccc(C)c1-c1cccc(CCN(C)C)c1 [Example 9, [2-(2′,6′-Dimethyl-biphenyl-3-yl)-ethyl]-dimethyl-amine] | 10.1 ± 0.8 | – | – |
| CCN(CC)CCc1cccc(-c2c(C)cccc2C)c1 [Example 11, [2-(2′,6′-Dimethyl-biphenyl-3-yl)-ethyl]-diethyl-amine] | 43.5 ± 15.9 | – | – |
| CCCN(CCC)CCc1cccc(-c2c(C)cccc2C)c1 [Example 12, [2-(2′,6′-Dimethyl-biphenyl-3-yl)-ethyl]-dipropyl-amine] | 42.6 ± 21.1 | – | – |
| COc1cccc(OC)c1-c1cccc(CCN(C)C)c1 [Example 13, [2-(2′,6′-Dimethoxy-biphenyl-3-yl)-ethyl]-dimethyl-amine] | 19.7 ± 1.5 | – | – |
| CCN(CC)CCc1cccc(-c2c(OC)cccc2OC)c1 [Example 15, [2-(2′,6′-Dimethoxy-biphenyl-3-yl)-ethyl]-diethyl-amine] | – | 302 | – |
| CCCN(CCC)CCc1cccc(-c2c(OC)cccc2OC)c1 [Example 16, [2-(2′,6′-Dimethoxy-biphenyl-3-yl)-ethyl]-dipropyl-amine] | – | 118 ± 45.9 | – |
| CCN(CC)CCc1cccc(-c2cnn(C)c2)c1 [Example 19, Diethyl-{2-[3-(1-methyl-1H-pyrazol-4-yl)-phenyl]-ethyl}-amine] | – | 753 | – |
| COc1ccccc1-c1cccc(CCN(C)C)c1 [Example 21, [2-(2′-Methoxy-biphenyl-3-yl)-ethyl]-dimethyl-amine] | 19.9 ± 1.7 | – | – |
| CCN(CC)CCc1cccc(-c2ccccc2OC)c1 [Example 23, Diethyl-[2-(2′-methoxy-biphenyl-3-yl)-ethyl]-amine] | – | 155 | – |
| CCCN(CCC)CCc1cccc(-c2ccccc2OC)c1 [Example 24, [2-(2′-Methoxy-biphenyl-3-yl)-ethyl]-dipropyl-amine] | 84.9 | – | – |
| Cc1noc(C)c1-c1cccc(CCN(C)C)c1 [Example 25, {2-[3-(3,5-Dimethyl-isoxazol-4-yl)-phenyl]-ethyl}-dimethyl-amine] | – | 802 ± 159 | – |
| CCCN(CCC)CCc1cccc(-c2c(C)noc2C)c1 [Example 28, {2-[3-(3,5-Dimethyl-isoxazol-4-yl)-phenyl]-ethyl}-dipropyl-amine] | – | 602 | – |
| Cc1nn(C)c(C)c1-c1cccc(CCN)c1 [Example 29, 2-[3-(1,3,5-Trimethyl-1H-pyrazol-4-yl)-phenyl]-ethylamine] | 4.5 ± 1.5 | – | – |
| COc1cccc(OC)c1-c1cccc(CCN)c1 [Example 33, 2-(2′6′-Dimethoxy-biphenyl-3-yl)-ethylamine] | 122 | – | – |
| CN(C)CCc1cccc(-c2c(Cl)cccc2Cl)c1 [Example 34] | 5 ± 1.7 | – | – |
| CN(C)CCc1cccc(-c2c(F)cccc2F)c1 [Example 35, [2-(2′,6′-Difluoro-biphenyl-3-yl)-ethyl]-dimethyl-amine] | 20.8 | – | – |
| COc1ncccc1-c1cccc(CCN(C)C)c1 [Example 36, {2-[3-(2-Methoxy-pyridin-3-yl)-phenyl]-ethyl}-dimethyl-amine] | 303 | – | – |
| CNCCc1cccc(-c2cccnc2OC)c1 [Example 37, {2-[3-(2-Methoxy-pyridin-3-yl)-phenyl]-ethyl}-methyl-amine] | 157 | – | – |
| COc1cccc(Cl)c1-c1cccc(CCN(C)C)c1 [Example 38, [2-(6′-Chloro-2′-methoxy-biphenyl-3-yl)-ethyl]-dimethyl-amine] | 24 ± 2.3 | – | – |
| CNCCc1cccc(-c2c(Cl)cccc2OC)c1 [Example 39, [2-(6′-Chloro-2′-methoxy-biphenyl-3-yl)-ethyl]-methyl-amine] | 8.8 | – | – |
| Cc1nn(C)c(C)c1-c1cccc(CCN2CCCC2)c1 [Example 42, 1,3,5-Trimethyl-4-[3-(2-pyrrolidin-1-yl-ethyl)-phenyl]-1H-pyrazole] | – | 139 ± 0.7 | – |
